Data on two compounds can be found in patent US12048307B2, “Compositions, methods and uses for cleaning, disinfecting and/or sterilizing” (Collidion, Inc., priority 2017, dated 2024).

The assay has as its system Bacillus subtilis (ATCC #19659) spores. The experiment in a line: B. subtilis spore viability assay, 15 minutes treatment, with or without serum. It counts as cell-based. Conditions: spore suspension about 1×10^6 cfu/mL, 48 hours incubation at 37° C. on TSA, >500 = too many colonies to count. The procedure: To prepare stock cultures of pathogenic spores, 10 mL nutrient broth was inoculated using a stock culture of Bacillus subtilis (ATCC #19659) and incubated on an orbital shaker for 24±2 hours at approximately 150 rpm at 36±1° C. This culture was used to inoculate Tryptic Soy Agar (TSA) plates. Each plate was inoculated with 500 μL of broth culture and the inoculum spread with a sterile L spreader. In addition, the purity of this culture was verified by streaking on TSA plates and incubating plates at 36±1° C. for 24±2 hours. Each plate was wrapped with parafilm. inverted and incubated for 12-14 days at 36±1° C. Following incubation, spores were harvested by adding 10 mL cold sterile water to each plate, the growth removed from the plates using a spreader, and the resulting suspensions were transferred into 15 mL sterile conical tubes. The suspensions were centrifuged at 5,000 rpm (4,500×g) for approximately 10 minutes at room temperature. After removal of the supernatant, the spore pellet was washed by re-suspending pellet with 10 mL cold sterile water and centrifuged at 5,000 rpm (4,500×g) for approximately 10 minutes. This washing step was repeated two more times. The spore pellet was re-suspended with 10 mL sterile water and the spore suspension was stored at 2-5° C. until needed. The spore suspension was stained using stain and the spores examined under the microscope to assess quality of the spores. A minimum of five fields were examined and the ratio of the spores to vegetative cells (or sporangia) was determined. Percentage of spores versus vegetative cells were about 95% spores. Spore titer was determined by preparing serial dilutions, plating the dilutions on TSA plates, incubating plates for 24±2 hours at 36±1° C., and counting the number of colonies formed to determine the titer. The test culture was standardized by using phosphate buffer to achieve a final test culture microbe population of 1.0×10^6 cfu/mL.
Assay samples were set up with or without serum, such as, e.g., Tryptic Soy Broth (TSB) or Bovine Serum (BS). The purpose of the serum was to better simulate the organic load of blood and other tissue which tends to deactivate an antimicrobial agent. In general, assays were conducted by first incubating a pathogen spore sample with a composition disclosed herein for a specified treatment time period, optionally with serum, and then culturing the sample on growth medium to assess spore viability.
In one series of experiments, assays where the samples were treated with serum were set up to contain 100 μL of pathogen spore suspension (containing about 1×10^6 cfu/mL), 50 μL of serum, and 850 μL of a composition described in Example 1. […] The inoculated plates were then incubated at 37° C. for 48 hours and the number of bacterial colonies, if any, counted. […]

A value given as a limit tells only on which side of the number the result lay.

In the case of `O=CCCCC=O` [0.5% Glutaraldehyde, Glutaraldehyde], the “Count (number of bacterial colonies), 5% Serum” value is more than 500 and the “Count (number of bacterial colonies), No Serum” value is more than 500.

In the case of hypochlorous acid [97 ppm HOCl], the “Count (number of bacterial colonies), 5% Serum” value was more than 500 and the “Count (number of bacterial colonies), No Serum” value was found to be 0.
